Experimental data taken from patent US9872824B2, “Semi-permanent hair straightening composition and method” (Lubrizol Advanced Materials, Inc., priority 2013, dated 2018).

Columns and labels:
[1] = Solution dipping, flat-iron thermal straightening, imaging analysis of tress length and width; set-up: species or system human; conditions: for Comparative straightening behaviour in words: imaging analysis data; for Ranking for semi-permanent thermal straightening efficiency: from imaging analysis data
Procedure: (§1) This method is used primarily to screen and select candidate molecules as possible thermally-activated agents. Typically, a solution of the candidate molecule is prepared in a suitable solvent system. The hair-tress is immersed completely in the solution with controlled concentration of candidate thermally-activated agent, pH, temperature and soaking time, such as for up to 60 minutes. Then, the hair-tress is removed from the solution, excess amount of material squeezed out, and the tress is blow-dried to at least 95% dryness before thermal straightening.
2. Image Analysis: the method can be used to quantify the curly hair-tress thermal straightening efficiency for different treatments. Measurements of tress length and width at half-length can be made with this method.
As for other tests, a curly hair-tress was completely immersed in an aqueous solution of a selected one of the small molecules and soaked for 45 minutes. Each solution contained an equimolar amount of the selected small molecule. The hair-tress was then removed from the solution, excess water was squeezed out manually, and the hair dried by a blower dryer to the desired dryness before thermal straightening, as described above.
The imaging analysis method was used to measure the total length and width of the hair-tress before and after the thermal straightening process, and after each shampoo-wash-cycle. More specifically, photographs of hair tresses or bundles of hair tresses were taken against a solid color background with a tripod-mounted digital camera. Illumination was selected to minimize shadows which could affect measurements. The tress was hung from a spindle that enabled the tress to be rotated 90 degrees so that pictures could be taken from four different angles, providing a full view of the tress, with a ruler mounted close to the tress as a scale.
The National Institutes for Health's Image J software program was used for image processing and analysis. […] The curly hair-tress has a contour length of 20 cm, and the top glued part is 2.0 cm wide and is about 0.4 cm of length. Therefore, the effective hair-tress contour length is 19.6 cm.

[2] = Solution-dipping screening, flat-iron straightening, shampoo-wash-fastness; set-up: species or system human; conditions: used alone under the same conditions
Procedure: as §1
The shampoo-wash-fastness is carried out by applying shampoo (VO5 or Suave shampoo) on the hair-tress which is massaged for 30 seconds followed by rinsing for 60 seconds with running warm water (32-35° C.). The washed hair-tress is then dried at 23° C. and 50% RH. Consecutive shampoo-wash-cycles are carried out without the drying step.
In the following initial screening test, the examination of thermally straightened hair-tresses is performed by visually examining a tress which has been treated in a solution containing up to 30 wt. % of a candidate thermally-activated agent for 45 minutes, flat-ironed at 210° C. (10×12 seconds). After three consecutive wash cycles, if the dried hair-tress (23° C. and 50% RH) becomes curly, this material is considered not effective, i.e. not worth a further evaluation in a cream formulation.

[3] = Solubility in water at room temperature; format: physicochemical; conditions: room temperature (25° C.)
[4] = average over 1-24 shampoos after thermal treatment
[5] = thermally-treated tress, equimolar aqueous solution, 45 min soak
[6] = thermally-treated tress, width at half-length

Structure (SMILES) | Front: Width1/2 [1, 4] [cm] | Lengthmax [1, 4] [cm] | Side: Width1/2 [1, 4] [cm] | Comparative straightening behaviour in words [1] | Lengthmax [1, 5] [cm] | Front: Width1/2 [1, 6] [cm] | Side: Width1/2 [1, 6] [cm] | Ranking for semi-permanent thermal straightening efficiency [1] | Straightening effectiveness relative to ethylene carbonate [2] | Solubility in water [3]
O=C1OCCO1 [EC, ethylene carbonate] | 2.6 ± 0.1 | 19.4 ± 0.1 | 1.5 ± 0.1 | behave similarly to formaldehyde (F) and glyoxylic acid (GA) | 19.4 | 3.6 | 0.9 |  |  | 
O=C1NCCN1 [EU, Ethylene Urea] | 4.1 ± 0.2 | 18.2 ± 0.2 | 2.6 ± 0.1 | relax the curly hair-tress to some degree | 19.4 | 3.2 | 1.6 | GA≈EC≈F≧TC>O>EU>U |  | 
O=CC(=O)O [GA, Glyoxylic Acid] | 2.5 ± 0.5 | 19.2 ± 0.3 | 1.4 ± 0.2 |  | 19.5 | 2.8 | 1.2 | GA≈EC≈F≧TC>O>EU>U |  | 
O=C1OCC(CO)O1 (centres unmarked) [GC, glycerol carbonate] |  |  |  |  |  |  |  |  | less effective | 
O=C1NCCO1 [O, 2-oxazolidinone] | 3.9 ± 0.2 | 18.4 ± 0.1 | 2.7 ± 0.2 | gives better straightening results than urea (U) and ethylene urea (EU) | 19.3 | 3.3 | 1.7 | GA≈EC≈F≧TC>O>EU>U |  | 
CC1COC(=O)O1 (centres unmarked) [PC, propylene carbonate] |  |  |  |  |  |  |  |  | less effective | up to 20 wt. %
NC(N)=O [U, Urea] | 5.8 ± 0.2 | 18.2 ± 0.2 | 4.0 ± 0.4 | relax the curly hair-tress to some degree | 19.6 | 3.6 | 2.0 | GA≈EC≈F≧TC>O>EU>U |  | 
